# Measurements reported in US10004701B2, “Methods and compositions for treating infection” (UNIVERSITY OF ROCHESTER, priority 2012, dated 2018).
# Read-outs that look alike come from different tables or passages of the source.
# Key:
# Assay in all cases: AK assay 384-well format, Prestwick library screening
# E. faecium = assay type: cell-based, Enterococcus faecium; details: for fold induction at 50 µM: Enterococcus faecium, 3 h
# [1] = test system: S. aureus strain USA300-0114; assay type: cell-based, Staphylococcus aureus; details: for fold induction at 50 µM: Staphylococcus aureus, USA300, 3 h
# K. pneumoniae = assay type: cell-based, Klebsiella pneumoniae; details: for fold induction at 50 µM: Klebsiella pneumoniae, 3 h
# [2] = test system: A. baumannii strain 98-37-09; assay type: cell-based, Acinetobacter baumannii; details: for fold induction at 50 µM: Acinetobacter baumannii, 983709, 3 h
# P. aeruginosa = assay type: cell-based, Pseudomonas aeruginosa; details: for fold induction at 50 µM: Pseudomonas aeruginosa, 3 h
# E. cloacae = assay type: cell-based, Enterobacter cloacae; details: for fold induction at 50 µM: Enterobacter cloacae, 3 h
# E. coli = assay type: cell-based, Escherichia coli; details: 50 μM final drug concentration; for fold induction at 50 µM: Escherichia coli, 3 h
# [3] = planktonic E. faecium, 50 μM final drug concentration, positive cutoff 3-fold increase, read-out: AK-based Prestwick library screening result, E. faecium (fold increase in extracellular AK activity)
# [4] = planktonic S. aureus, 50 μM final drug concentration, positive cutoff 3-fold increase, read-out: AK-based Prestwick library screening result, S. aureus (fold increase in extracellular AK activity)
# [5] = planktonic K. pneumoniae, 50 μM final drug concentration, positive cutoff 3-fold increase, read-out: AK-based Prestwick library screening result, K. pneumoniae (fold increase in extracellular AK activity)
# [6] = planktonic A. baumannii, 50 μM final drug concentration, positive cutoff 3-fold increase, read-out: AK-based Prestwick library screening result, A. baumannii (fold increase in extracellular AK activity)
# [7] = planktonic P. aeruginosa, 50 μM final drug concentration, positive cutoff 3-fold increase, read-out: AK-based Prestwick library screening result, P. aeruginosa (fold increase in extracellular AK activity)
# [8] = planktonic E. cloacae, 50 μM final drug concentration, positive cutoff 3-fold increase, read-out: AK-based Prestwick library screening result, E. cloacae (fold increase in extracellular AK activity)
# [9] = planktonic E. coli, positive cutoff 3-fold increase, read-out: AK-based Prestwick library screening result, E. coli (fold increase in extracellular AK activity)
# [10] = 50 μM final drug concentration, planktonic, cutoff for positive 3-fold increase
# [11] = planktonic, […], read-out: AK-based Prestwick Library Screening Results, E. coli (fold increase in extracellular AK activity)
# [12] = planktonic E. coli, 384-well, […], read-out: AK-based Prestwick Library Screening Results: E. coli (increase in extracellular AK activity)
compound,measurement,setting,value
COC(=O)C1=C(C)NC(C)=C(C(=O)OC(C)C)C1c1cccc2nonc12 (stereo not drawn) [Isradipine],fold induction at 50 µM,E. faecium; [3],1.1
same,fold induction at 50 µM,[1]; [4],0.7
same,fold induction at 50 µM,K. pneumoniae; [5],1.1
same,fold induction at 50 µM,[2]; [6],1.2
same,fold induction at 50 µM,P. aeruginosa; [7],1.1
same,fold induction at 50 µM,E. cloacae; [8],1.4
same,fold induction at 50 µM,E. coli; [9],1.1
CC[C@H](C)[C@H]1O[C@]2(CC[C@@H]1C)C[C@@H]1C[C@@H](C/C=C(\C)[C@@H](O[C@H]3C[C@H](OC)[C@@H](O[C@H]4C[C@H](OC)[C@@H](O)[C@H](C)O4)[C@H](C)O3)[C@@H](C)/C=C/C=C3\CO[C@@H]4[C@H](O)C(C)=C[C@@H](C(=O)O1)[C@]34O)O2 [Ivermectin],AK-based Prestwick Library Screening Results: E. faecium (increase in extracellular AK activity),"E. faecium; planktonic E. faecium, 50 μM final drug concentration, 384-well, […]",1.2
same,AK-based Prestwick Library Screening Results: S. aureus (increase in extracellular AK activity),"[1]; planktonic S. aureus, 50 μM final drug concentration, 384-well, […]",2.1
same,AK-based Prestwick Library Screening Results: K. pneumoniae (increase in extracellular AK activity),"K. pneumoniae; planktonic K. pneumoniae, 50 μM final drug concentration, 384-well, […]",1.0
same,AK-based Prestwick Library Screening Results: A. baumannii (increase in extracellular AK activity),"[2]; planktonic A. baumannii, 50 μM final drug concentration, 384-well, […]",1.5
same,AK-based Prestwick Library Screening Results: P. aeruginosa (increase in extracellular AK activity),"P. aeruginosa; planktonic P. aeruginosa, 50 μM final drug concentration, 384-well, […]",1.0
same,AK-based Prestwick Library Screening Results: E. cloacae (increase in extracellular AK activity),"E. cloacae; planktonic E. cloacae, 50 μM final drug concentration, 384-well, […]",1.6
same,AK-based Prestwick Library Screening Results: E. coli (increase in extracellular AK activity),"E. coli; planktonic E. coli, 384-well, […]",1.3
CO[C@@H]1[C@@H](O[C@@H]2O[C@H](C)[C@@H](O[C@H]3C[C@@](C)(O)[C@@H](OC(=O)CC(C)C)[C@H](C)O3)[C@H](N(C)C)[C@H]2O)[C@@H](CC=O)C[C@@H](C)[C@@H](O)/C=C/C=C/C[C@@H](C)OC(=O)C[C@H]1OC(C)=O [Josamycin],fold induction at 50 µM,"E. faecium; planktonic E. faecium, 50 μM final drug concentration, 384-well, cutoff for positive-scoring molecules 3-fold increase, read-out: AK-based Prestwick Library Screening Results: E. faecium (increase in extracellular AK activity)",1
same,fold induction at 50 µM,"[1]; planktonic S. aureus, 50 μM final drug concentration, 384-well, cutoff for positive-scoring molecules 3-fold increase, read-out: AK-based Prestwick Library Screening Results: S. aureus (increase in extracellular AK activity)",8.4
same,fold induction at 50 µM,"K. pneumoniae; planktonic K. pneumoniae, 50 μM final drug concentration, 384-well, cutoff for positive-scoring molecules 3-fold increase, read-out: AK-based Prestwick Library Screening Results: K. pneumoniae (increase in extracellular AK activity)",1
same,fold induction at 50 µM,"[2]; planktonic A. baumannii, 50 μM final drug concentration, 384-well, cutoff for positive-scoring molecules 3-fold increase, read-out: AK-based Prestwick Library Screening Results: A. baumannii (increase in extracellular AK activity)",1.1
same,fold induction at 50 µM,"P. aeruginosa; planktonic P. aeruginosa, 50 μM final drug concentration, 384-well, cutoff for positive-scoring molecules 3-fold increase, read-out: AK-based Prestwick Library Screening Results: P. aeruginosa (increase in extracellular AK activity)",0.9
same,fold induction at 50 µM,"E. cloacae; planktonic E. cloacae, 50 μM final drug concentration, 384-well, cutoff for positive-scoring molecules 3-fold increase, read-out: AK-based Prestwick Library Screening Results: E. cloacae (increase in extracellular AK activity)",1.4
same,fold induction at 50 µM,"E. coli; planktonic E. coli, 384-well, cutoff for positive-scoring molecules 3-fold increase, read-out: AK-based Prestwick Library Screening Results: E. coli (increase in extracellular AK activity)",1.3
O=c1c(O)c(-c2ccc(O)cc2)oc2cc(O)cc(O)c12 [Kaempferol],fold induction at 50 µM,E. faecium; [3],1
same,fold induction at 50 µM,[1]; [4],0.2
same,fold induction at 50 µM,K. pneumoniae; [5],0.6
same,fold induction at 50 µM,[2]; [6],0.5
same,fold induction at 50 µM,P. aeruginosa; [7],0.6
same,fold induction at 50 µM,E. cloacae; [8],1.6
same,fold induction at 50 µM,E. coli; [9],0.5
NC[C@H]1O[C@H](O[C@H]2[C@H](O)[C@@H](O[C@H]3O[C@H](CO)[C@@H](O)[C@H](N)[C@H]3O)[C@H](N)C[C@@H]2N)[C@H](O)[C@@H](O)[C@@H]1O.O=S(=O)(O)O [Kanamycin A sulfate],"AK-based Prestwick Library Screening Results, E. faecium (fold increase in extracellular AK activity)",E. faecium; [10],0.9
same,"AK-based Prestwick Library Screening Results, S. aureus (fold increase in extracellular AK activity)",[1]; [10],2.5
same,"AK-based Prestwick Library Screening Results, K. pneumoniae (fold increase in extracellular AK activity)",K. pneumoniae; [10],1.0
same,"AK-based Prestwick Library Screening Results, A. baumannii (fold increase in extracellular AK activity)",[2]; [10],1.1
same,"AK-based Prestwick Library Screening Results, P. aeruginosa (fold increase in extracellular AK activity)",P. aeruginosa; [10],1.0
same,"AK-based Prestwick Library Screening Results, E. cloacae (fold increase in extracellular AK activity)",E. cloacae; [10],1.9
same,"AK-based Prestwick Library Screening Results, E. coli (fold increase in extracellular AK activity)","E. coli; planktonic, cutoff for positive 3-fold increase",1.2
CCN1C[C@]2(C)CC[C@H](O)[C@]34C1[C@@H](C[C@H]23)[C@@]1(O)C[C@H](OC)[C@H]2C[C@@H]4[C@@H]1[C@H]2O [Karakoline],fold induction at 50 µM,"E. faecium; 50 μM final drug concentration, planktonic, […], read-out: AK-based Prestwick Library Screening Results, E. faecium (fold increase in extracellular AK activity)",1
same,fold induction at 50 µM,"[1]; 50 μM final drug concentration, planktonic, […], read-out: AK-based Prestwick Library Screening Results, S. aureus (fold increase in extracellular AK activity)",1.2
same,fold induction at 50 µM,"K. pneumoniae; 50 μM final drug concentration, planktonic, […], read-out: AK-based Prestwick Library Screening Results, K. pneumoniae (fold increase in extracellular AK activity)",0.9
same,fold induction at 50 µM,"[2]; 50 μM final drug concentration, planktonic, […], read-out: AK-based Prestwick Library Screening Results, A. baumannii (fold increase in extracellular AK activity)",1
same,fold induction at 50 µM,"P. aeruginosa; 50 μM final drug concentration, planktonic, […], read-out: AK-based Prestwick Library Screening Results, P. aeruginosa (fold increase in extracellular AK activity)",1.1
same,fold induction at 50 µM,"E. cloacae; 50 μM final drug concentration, planktonic, […], read-out: AK-based Prestwick Library Screening Results, E. cloacae (fold increase in extracellular AK activity)",1.3
same,fold induction at 50 µM,E. coli; [11],1
COC1=CC(=O)O[C@@H](/C=C/c2ccccc2)C1 [Kawain],fold induction at 50 µM,"E. faecium; planktonic E. faecium, 50 μM final drug concentration, 384-well, […], read-out: AK-based Prestwick Library Screening Results: E. faecium (increase in extracellular AK activity)",1.1
same,fold induction at 50 µM,"[1]; planktonic S. aureus, 50 μM final drug concentration, 384-well, […], read-out: AK-based Prestwick Library Screening Results: S. aureus (increase in extracellular AK activity)",1
same,fold induction at 50 µM,"K. pneumoniae; planktonic K. pneumoniae, 50 μM final drug concentration, 384-well, […], read-out: AK-based Prestwick Library Screening Results: K. pneumoniae (increase in extracellular AK activity)",1
same,fold induction at 50 µM,"[2]; planktonic A. baumannii, 50 μM final drug concentration, 384-well, […], read-out: AK-based Prestwick Library Screening Results: A. baumannii (increase in extracellular AK activity)",1.2
same,fold induction at 50 µM,"P. aeruginosa; planktonic P. aeruginosa, 50 μM final drug concentration, 384-well, […], read-out: AK-based Prestwick Library Screening Results: P. aeruginosa (increase in extracellular AK activity)",1
same,fold induction at 50 µM,"E. cloacae; planktonic E. cloacae, 50 μM final drug concentration, 384-well, […], read-out: AK-based Prestwick Library Screening Results: E. cloacae (increase in extracellular AK activity)",1.4
same,fold induction at 50 µM,E. coli; [12],1.1
CC(=O)N1CCN(c2ccc(OCC3COC(Cn4ccnc4)(c4ccc(Cl)cc4Cl)O3)cc2)CC1 (stereo not drawn) [Ketoconazole],fold induction at 50 µM,"E. faecium; 50 μM final drug concentration, planktonic, cutoff for positive 3-fold increase, read-out: AK-based Prestwick Library Screening Results, E. faecium (fold increase in extracellular AK activity)",0.9
same,fold induction at 50 µM,"[1]; 50 μM final drug concentration, planktonic, cutoff for positive 3-fold increase, read-out: AK-based Prestwick Library Screening Results, S. aureus (fold increase in extracellular AK activity)",1.2
same,fold induction at 50 µM,"K. pneumoniae; 50 μM final drug concentration, planktonic, cutoff for positive 3-fold increase, read-out: AK-based Prestwick Library Screening Results, K. pneumoniae (fold increase in extracellular AK activity)",1.2
same,fold induction at 50 µM,"[2]; 50 μM final drug concentration, planktonic, cutoff for positive 3-fold increase, read-out: AK-based Prestwick Library Screening Results, A. baumannii (fold increase in extracellular AK activity)",1.5
same,fold induction at 50 µM,"P. aeruginosa; 50 μM final drug concentration, planktonic, cutoff for positive 3-fold increase, read-out: AK-based Prestwick Library Screening Results, P. aeruginosa (fold increase in extracellular AK activity)",1.1
same,fold induction at 50 µM,"E. cloacae; 50 μM final drug concentration, planktonic, cutoff for positive 3-fold increase, read-out: AK-based Prestwick Library Screening Results, E. cloacae (fold increase in extracellular AK activity)",1.5
same,fold induction at 50 µM,E. coli; [11],1.3
CC(C(=O)O)c1cccc(C(=O)c2ccccc2)c1 (stereo not drawn) [Ketoprofen],fold induction at 50 µM,E. faecium; read-out: AK-based Prestwick Library Screening Results: E. faecium (increase in extracellular AK activity),0.9
same,fold induction at 50 µM,[1]; read-out: AK-based Prestwick Library Screening Results: S. aureus (increase in extracellular AK activity),1
same,fold induction at 50 µM,K. pneumoniae; read-out: AK-based Prestwick Library Screening Results: K. pneumoniae (increase in extracellular AK activity),1.1
same,fold induction at 50 µM,[2]; read-out: AK-based Prestwick Library Screening Results: A. baumannii (increase in extracellular AK activity),1
same,fold induction at 50 µM,P. aeruginosa; read-out: AK-based Prestwick Library Screening Results: P. aeruginosa (increase in extracellular AK activity),1
same,fold induction at 50 µM,E. cloacae; read-out: AK-based Prestwick Library Screening Results: E. cloacae (increase in extracellular AK activity),1.5
same,fold induction at 50 µM,E. coli; [12],1.1
